Measured values as given in BindingDB's records for doi:10.1021/acschembio.5b00940 (University of Washington, 2016).

Molecular target: T1, Serine/threonine-protein kinase/endoribonuclease IRE1 [547-977] (Homo sapiens, UniProt O75460)
T1 construct: 547-977
Assay: In vitro RNase Assay
Excerpt: The fluorescence intensities were normalized by setting the signal for the reaction without IRE1α* to 0.

T1 sequence (O75460 547-977): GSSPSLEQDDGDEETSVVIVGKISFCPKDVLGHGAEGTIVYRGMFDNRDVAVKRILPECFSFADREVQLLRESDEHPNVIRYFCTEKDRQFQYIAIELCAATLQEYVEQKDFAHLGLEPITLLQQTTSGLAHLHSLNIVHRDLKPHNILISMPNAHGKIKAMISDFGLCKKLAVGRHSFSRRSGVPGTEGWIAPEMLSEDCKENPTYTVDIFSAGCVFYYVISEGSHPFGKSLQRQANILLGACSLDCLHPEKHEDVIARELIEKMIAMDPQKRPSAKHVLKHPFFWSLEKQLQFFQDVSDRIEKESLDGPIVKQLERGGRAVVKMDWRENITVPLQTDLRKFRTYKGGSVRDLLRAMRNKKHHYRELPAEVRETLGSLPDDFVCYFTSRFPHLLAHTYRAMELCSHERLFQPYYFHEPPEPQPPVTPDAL

SMILES | IC50 [nM]
CC(C)(C)c1nc(-c2ccc(NC(=O)Nc3cccc(C(F)(F)F)c3)c3ccccc23)c2c(N)nccn12 [KIRA analog, 2] | 120
Nc1nccn2c(C3CCC3)nc(-c3ccc(NC(=O)Nc4cccc(C(F)(F)F)c4)c4ccccc34)c12 [KIRA analog, 4] | 180
Nc1nccn2c(C3CC3)nc(-c3ccc(NC(=O)Nc4cccc(C(F)(F)F)c4)c4ccccc34)c12 [KIRA analog, 5] | 480
CC1(c2nc(-c3ccc(NC(=O)Nc4cccc(C(F)(F)F)c4)cc3F)c3c(N)nccn23)CC1 [KIRA analog, 7] | 390
Cc1cc(NC(=O)Nc2cccc(C(F)(F)F)c2)ccc1-c1nc(C2(C)CC2)n2ccnc(N)c12 [KIRA analog, 8] | 1500
CC1(c2nc(-c3ccc(NC(=O)Nc4cccc(C(F)(F)F)c4)cc3Cl)c3c(N)nccn23)CC1 [KIRA analog, 9] | 2400
Cc1c(NC(=O)Nc2cccc(C(F)(F)F)c2)ccc(-c2nc(C3(C)CC3)n3ccnc(N)c23)c1C [KIRA analog, 10] | 1200
CC1(c2nc(-c3ccc(NC(=O)Nc4cccc(C(F)(F)F)c4)c(F)c3F)c3c(N)nccn23)CC1 [KIRA analog, 11] | 20000
COc1cc(NC(=O)Nc2ccc(-c3nc(C4(C)CC4)n4ccnc(N)c34)c3ccccc23)cc(C(F)(F)F)c1 [KIRA analog, 17] | 290
CN1CCN(Cc2ccc(NC(=O)Nc3ccc(-c4nc(C5(C)CC5)n5ccnc(N)c45)c4ccccc34)cc2C(F)(F)F)CC1 [KIRA analog, 20] | 190
CN1CCN(Cc2ccc(NC(=O)Nc3ccc(-c4nc(C5(C)CC5)n5ccnc(N)c45)c4ccccc34)cc2)CC1 [KIRA analog, 21] | 340
CC1(c2nc(-c3ccc(NC(=O)NCCc4ccccc4)c4ccccc34)c3c(N)nccn23)CC1 [KIRA analog, 24] | 4100
CC1(c2nc(-c3ccc(NC(=O)NC4CCCCC4)c4ccccc34)c3c(N)nccn23)CC1 [KIRA analog, 25] | 2200
CC1(c2nc(-c3ccc(NC(=O)N4CCOCC4)c4ccccc34)c3c(N)nccn23)CC1 [KIRA analog, 26] | 60000
CC1(c2nc(-c3ccc(NC(=O)N4CCCCC4)c4ccccc34)c3c(N)nccn23)CC1 [KIRA analog, 27] | 60000
CC1(c2nc(-c3ccc(NC(=O)NC4CC4)c4ccccc34)c3c(N)nccn23)CC1 [KIRA analog, 28] | 6300
CN(C(=O)Nc1ccc(-c2nc(C3(C)CC3)n3ccnc(N)c23)c2ccccc12)c1cccc(C(F)(F)F)c1 [KIRA analog, 29] | 19000
CC(C)(C)c1nc(-c2ccc(NC(=O)N3CCN(c4cccc(C(F)(F)F)c4)C3=O)c3ccccc23)c2c(N)nccn12 [KIRA analog, 30] | > 60000
CC1(c2nc(-c3ccc(NC(=O)OCCc4ccccc4)c4ccccc34)c3c(N)nccn23)CC1 [KIRA analog, 31] | 60000
CC1(c2nc(-c3ccc(NC(=O)OCC(=O)c4ccccc4)c4ccccc34)c3c(N)nccn23)CC1 [KIRA analog, 32] | 60000

Second part, the molecule after the results:

IC50 [nM] | SMILES
90 | CC1(c2nc(-c3ccc(NC(=O)Nc4cccc(C(F)(F)F)c4)c4ccccc34)c3c(N)nccn23)CC1 [KIRA analog, 3]
330 | CC1(c2nc(-c3ccc(NC(=O)Nc4cccc(C(F)(F)F)c4)c4ccccc34)c3c(N)nccn23)COC1 [KIRA analog, 6]
190 | CC1(c2nc(-c3ccc(NC(=O)Nc4ccccc4)c4ccccc34)c3c(N)nccn23)CC1 [KIRA analog, 12]
220 | CC1(c2nc(-c3ccc(NC(=O)Nc4cccc(F)c4)c4ccccc34)c3c(N)nccn23)CC1 [KIRA analog, 13]
260 | Cc1cccc(NC(=O)Nc2ccc(-c3nc(C4(C)CC4)n4ccnc(N)c34)c3ccccc23)c1 [KIRA analog, 14]
310 | COc1cccc(NC(=O)Nc2ccc(-c3nc(C4(C)CC4)n4ccnc(N)c34)c3ccccc23)c1 [KIRA analog, 15]
140 | CSc1cccc(NC(=O)Nc2ccc(-c3nc(C4(C)CC4)n4ccnc(N)c34)c3ccccc23)c1 [KIRA analog, 16]
610 | CC1(c2nc(-c3ccc(NC(=O)Nc4cc(F)cc(C(F)(F)F)c4)c4ccccc34)c3c(N)nccn23)CC1 [KIRA analog, 18]
1600 | CNS(=O)(=O)c1cccc(NC(=O)Nc2ccc(-c3nc(C4(C)CC4)n4ccnc(N)c34)c3ccccc23)c1 [KIRA analog, 19]
7100 | Cc1cc(NC(=O)Nc2ccc(-c3nc(C4(C)CC4)n4ccnc(N)c34)c3ccccc23)n[nH]1 [KIRA analog, 22]
3600 | CC1(c2nc(-c3ccc(NC(=O)NCc4ccccc4)c4ccccc34)c3c(N)nccn23)CC1 [KIRA analog, 23]
